According to the NIST ThermoML archive (doi:10.1021/je2003012):
± gives the expanded uncertainty stated by the source.

Experiment: relative permittivity at various frequencies (dimensionless); wn = mass fraction of the nth substance listed
Settings: Liquid, direct capacitance:P =

O=C=O [carbon dioxide] + CCO
Settings	relative permittivity
304.9 K, 29800 kPa, w2 = 0.152	2.85 ± 0.16
312.8 K, 8000 kPa, w2 = 0.212	2.8 ± 0.15
312.8 K, 9300 kPa, w2 = 0.212	2.86 ± 0.14
312.8 K, 11200 kPa, w2 = 0.212	2.94 ± 0.14
312.8 K, 11500 kPa, w2 = 0.212	2.94 ± 0.14
312.8 K, 14200 kPa, w2 = 0.212	3 ± 0.14
312.8 K, 14300 kPa, w2 = 0.212	3.01 ± 0.14
312.8 K, 14900 kPa, w2 = 0.212	3.03 ± 0.14
312.8 K, 15800 kPa, w2 = 0.212	3.05 ± 0.14
312.8 K, 17400 kPa, w2 = 0.212	3.11 ± 0.14
312.8 K, 18000 kPa, w2 = 0.212	3.14 ± 0.14
312.8 K, 20000 kPa, w2 = 0.212	3.17 ± 0.14
312.8 K, 20600 kPa, w2 = 0.212	3.18 ± 0.14
312.8 K, 22200 kPa, w2 = 0.212	3.22 ± 0.14
312.8 K, 22800 kPa, w2 = 0.212	3.23 ± 0.14
312.8 K, 23700 kPa, w2 = 0.212	3.25 ± 0.14
312.8 K, 26300 kPa, w2 = 0.212	3.3 ± 0.14
312.8 K, 28100 kPa, w2 = 0.212	3.32 ± 0.14
312.8 K, 28400 kPa, w2 = 0.212	3.34 ± 0.14
312.8 K, 30800 kPa, w2 = 0.212	3.37 ± 0.14
313 K, 9700 kPa, w2 = 0.05	1.63 ± 0.14
313 K, 9800 kPa, w2 = 0.05	1.64 ± 0.14
313 K, 9900 kPa, w2 = 0.05	1.65 ± 0.14
313 K, 11300 kPa, w2 = 0.05	1.7 ± 0.14
313 K, 11700 kPa, w2 = 0.05	1.7 ± 0.14
313 K, 11800 kPa, w2 = 0.05	1.7 ± 0.14
313 K, 13200 kPa, w2 = 0.05	1.74 ± 0.14
313 K, 13700 kPa, w2 = 0.05	1.74 ± 0.14
313 K, 15100 kPa, w2 = 0.05	1.77 ± 0.14
313 K, 15700 kPa, w2 = 0.05	1.78 ± 0.14
313 K, 17400 kPa, w2 = 0.05	1.8 ± 0.14
313 K, 17500 kPa, w2 = 0.05	1.8 ± 0.14
313 K, 19200 kPa, w2 = 0.05	1.82 ± 0.14
313 K, 20700 kPa, w2 = 0.05	1.83 ± 0.14
313 K, 21600 kPa, w2 = 0.05	1.84 ± 0.14
313 K, 23500 kPa, w2 = 0.05	1.86 ± 0.14
313 K, 25300 kPa, w2 = 0.05	1.87 ± 0.14
313 K, 25400 kPa, w2 = 0.05	1.87 ± 0.14
313 K, 27400 kPa, w2 = 0.05	1.89 ± 0.14
313 K, 30400 kPa, w2 = 0.05	1.91 ± 0.14
313.1 K, 9700 kPa, w2 = 0.1	1.98 ± 0.15
313.1 K, 10100 kPa, w2 = 0.152	2.37 ± 0.14
313.1 K, 10200 kPa, w2 = 0.1	2 ± 0.14
313.1 K, 10900 kPa, w2 = 0.152	2.39 ± 0.14
313.1 K, 11000 kPa, w2 = 0.1	2.03 ± 0.14
313.1 K, 11800 kPa, w2 = 0.152	2.42 ± 0.14
313.1 K, 12000 kPa, w2 = 0.1	2.05 ± 0.14
313.1 K, 12700 kPa, w2 = 0.1	2.08 ± 0.14
313.1 K, 12700 kPa, w2 = 0.152	2.45 ± 0.14
313.1 K, 13100 kPa, w2 = 0.1	2.09 ± 0.14
313.1 K, 13700 kPa, w2 = 0.1	2.11 ± 0.14
313.1 K, 13800 kPa, w2 = 0.152	2.47 ± 0.14
313.1 K, 14600 kPa, w2 = 0.152	2.49 ± 0.14
313.1 K, 14800 kPa, w2 = 0.1	2.13 ± 0.14
313.1 K, 15700 kPa, w2 = 0.152	2.52 ± 0.14
313.1 K, 15800 kPa, w2 = 0.1	2.15 ± 0.14
313.1 K, 16800 kPa, w2 = 0.152	2.54 ± 0.14
313.1 K, 17000 kPa, w2 = 0.1	2.17 ± 0.14
313.1 K, 17700 kPa, w2 = 0.1	2.18 ± 0.14
313.1 K, 17800 kPa, w2 = 0.152	2.56 ± 0.14
313.1 K, 18800 kPa, w2 = 0.1	2.19 ± 0.14
313.1 K, 18800 kPa, w2 = 0.152	2.58 ± 0.14
313.1 K, 19500 kPa, w2 = 0.152	2.59 ± 0.14
313.1 K, 19800 kPa, w2 = 0.1	2.2 ± 0.14
313.1 K, 20800 kPa, w2 = 0.152	2.61 ± 0.14
313.1 K, 21600 kPa, w2 = 0.152	2.62 ± 0.14
313.1 K, 21900 kPa, w2 = 0.1	2.23 ± 0.14
313.1 K, 22100 kPa, w2 = 0.1	2.23 ± 0.14
313.1 K, 22400 kPa, w2 = 0.1	2.24 ± 0.14
313.1 K, 22600 kPa, w2 = 0.152	2.63 ± 0.14
313.1 K, 23500 kPa, w2 = 0.152	2.64 ± 0.14
313.1 K, 24100 kPa, w2 = 0.1	2.26 ± 0.14
313.1 K, 24400 kPa, w2 = 0.1	2.26 ± 0.14
313.1 K, 24500 kPa, w2 = 0.152	2.66 ± 0.14
313.1 K, 25500 kPa, w2 = 0.152	2.67 ± 0.14
313.1 K, 25800 kPa, w2 = 0.1	2.28 ± 0.14
313.1 K, 26400 kPa, w2 = 0.1	2.28 ± 0.14
313.1 K, 26500 kPa, w2 = 0.152	2.68 ± 0.14
313.1 K, 27500 kPa, w2 = 0.152	2.69 ± 0.14
313.1 K, 27700 kPa, w2 = 0.1	2.3 ± 0.14
313.1 K, 27800 kPa, w2 = 0.1	2.3 ± 0.14
313.1 K, 27900 kPa, w2 = 0.152	2.7 ± 0.14
313.1 K, 28300 kPa, w2 = 0.1	2.3 ± 0.14
313.1 K, 28400 kPa, w2 = 0.152	2.71 ± 0.14
313.1 K, 29300 kPa, w2 = 0.1	2.31 ± 0.14
313.1 K, 29300 kPa, w2 = 0.152	2.72 ± 0.14
313.1 K, 29500 kPa, w2 = 0.1	2.32 ± 0.14
322.4 K, 10500 kPa, w2 = 0.1	1.86 ± 0.14
